Some test systems named below: SK-OV-3 ovarian; OVCAR-8 ovarian; DU-145 prostate; EKVX NSCLC; NCI-H23 lung; NCI-H226 lung; HL-60(TB) leukemia; RXF 393 renal; UACC-62 melanoma; UO-31 renal.
What all share (assay): growth of human tumour cells (NCI), 48 h

The values below come from PubChem BioAssay (NCI).

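Five concentrations, 48 hours, 96-well plates. Here, GI50 denotes the concentration required for 50% inhibition of growth. TGI denotes the concentration required for complete inhibition of growth.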

In the case of `COc1cc2c(cc1OC(C)C)[C@H](c1ccc(Cl)cc1)N(c1ccc(N(C)CC3CCC(N4CCN(C)C(=O)C4)CC3)cc1)C(=O)C2` (stereo not given in full), the GI50 was 4.05 µM in the assay with SK-OV-3 ovarian; 5.86 µM in the assay with OVCAR-8 ovarian; 5.3 µM in the assay with DU-145 prostate; 1.93 µM with EKVX NSCLC; 3.34 µM in the assay with NCI-H23 lung; 0.311 µM with NCI-H226 lung. Moreover, the GI50 with HL-60(TB) leukemia was 2.19 µM; with RXF 393 renal, 2.66 µM; in the assay with UACC-62 melanoma, 0.521 µM; with UO-31 renal it was 0.305 µM. Also, the TGI with SK-OV-3 ovarian came out at 8.86 µM; in the assay on OVCAR-8 ovarian, 20.3 µM; in the assay on DU-145 prostate, 11.2 µM; in the assay on EKVX NSCLC, 7.81 µM; with NCI-H23 lung it was 13.2 µM; with NCI-H226 lung, 1.7 µM. Moreover, the TGI in the assay on HL-60(TB) leukemia stood at 5.87 µM; in the assay on RXF 393 renal, 7.92 µM; in the assay on UACC-62 melanoma, 3.52 µM; with UO-31 renal, 2.22 µM.

Take `O=C1N[C@@H]2[C@@H](O)[C@@H](O)[C@H](O)C[C@H]2c2cc3c(c(O)c21)OCCO3`: the GI50 with SK-OV-3 ovarian is 0.496 µM; with OVCAR-8 ovarian, 0.287 µM; in the assay with DU-145 prostate it was 0.229 µM; in the assay on EKVX NSCLC, 0.323 µM; in the assay with NCI-H23 lung, 0.238 µM; in the assay with NCI-H226 lung, 0.273 µM. In addition, the GI50 with HL-60(TB) leukemia is 0.19 µM; in the assay on RXF 393 renal, 0.264 µM; with UACC-62 melanoma, 0.272 µM; with UO-31 renal, 0.294 µM. Also, the TGI was found to be 4.03 µM in the assay with SK-OV-3 ovarian; 3.21 µM in the assay on OVCAR-8 ovarian; 0.84 µM in the assay on DU-145 prostate; 1.85 µM in the assay on EKVX NSCLC; 0.915 µM with NCI-H23 lung; 1.08 µM with NCI-H226 lung. Also, the TGI is 0.599 µM in the assay on HL-60(TB) leukemia, 1.11 µM in the assay on RXF 393 renal, 1.38 µM with UACC-62 melanoma and 1.72 µM in the assay on UO-31 renal.

As to `CC1Cc2c(Cl)ncnc2N(C)c2ccc(Cl)cc21` (stereo not given), the GI50 in the assay with SK-OV-3 ovarian was 0.372 µM; in the assay with OVCAR-8 ovarian, 0.394 µM; with DU-145 prostate, 0.589 µM; in the assay with EKVX NSCLC it was 0.299 µM; with NCI-H23 lung it was 0.316 µM; in the assay on NCI-H226 lung, 0.241 µM. Besides, the GI50 was 0.403 µM with HL-60(TB) leukemia, 0.342 µM in the assay on RXF 393 renal, 0.406 µM in the assay on UACC-62 melanoma and 0.337 µM with UO-31 renal. In addition, the TGI in the assay on SK-OV-3 ovarian is 12.9 µM; in the assay with OVCAR-8 ovarian it was 20.6 µM; with DU-145 prostate, > 100 µM; in the assay with EKVX NSCLC, 9.73 µM; in the assay on NCI-H23 lung, 2.2 µM; in the assay with NCI-H226 lung, 0.602 µM. The TGI in the assay on HL-60(TB) leukemia is > 100 µM; with RXF 393 renal, 1.46 µM; in the assay on UACC-62 melanoma, 69.2 µM; in the assay with UO-31 renal, > 100 µM.

Turning to `Cc1cnc2n1S(=O)(=O)c1cc(C(=O)Nc3cccc4nsnc34)c(Cl)cc1S2`, the GI50 in the assay with SK-OV-3 ovarian was > 100 µM; in the assay with OVCAR-8 ovarian it was 33.6 µM; with DU-145 prostate it was 25.5 µM; with EKVX NSCLC, 46.8 µM; in the assay on NCI-H23 lung it was 18 µM; with NCI-H226 lung, 17.3 µM. Moreover, the GI50 in the assay with HL-60(TB) leukemia is 24.7 µM; in the assay with RXF 393 renal it was 12.9 µM; in the assay on UACC-62 melanoma it was 17.1 µM; in the assay with UO-31 renal it was 22.9 µM. Further, the TGI was > 100 µM in the assay with SK-OV-3 ovarian; > 100 µM with OVCAR-8 ovarian; 67.9 µM in the assay with DU-145 prostate; > 100 µM with EKVX NSCLC; 32.8 µM with NCI-H23 lung; 34.2 µM in the assay on NCI-H226 lung. In addition, the TGI in the assay on HL-60(TB) leukemia was > 100 µM; with RXF 393 renal, 29.4 µM; with UACC-62 melanoma, 32.9 µM; with UO-31 renal, 51.8 µM.

Turning to `COc1c/c(=C2\C=c3ccccc3=N2)[nH]/c1=C\c1[nH]c(C)cc1C`, the GI50 in the assay on SK-OV-3 ovarian was 1.54 µM; in the assay on OVCAR-8 ovarian, 0.214 µM; in the assay with DU-145 prostate it was 0.0174 µM; in the assay with EKVX NSCLC it was 0.601 µM; in the assay on NCI-H23 lung it was 0.0986 µM; in the assay on NCI-H226 lung, 16.5 µM. Also, the GI50 in the assay with HL-60(TB) leukemia is < 0.0167 µM; in the assay with RXF 393 renal it was 0.538 µM; with UACC-62 melanoma, 0.0134 µM; in the assay on UO-31 renal, < 0.0106 µM. Besides, the TGI is > 88.7 µM in the assay on SK-OV-3 ovarian; > 21.8 µM in the assay on OVCAR-8 ovarian; > 81.4 µM in the assay on DU-145 prostate; > 94.4 µM with EKVX NSCLC; 7.08 µM with NCI-H23 lung; > 100 µM with NCI-H226 lung. Besides, the TGI in the assay on HL-60(TB) leukemia was 12.8 µM; with RXF 393 renal it was > 100 µM; with UACC-62 melanoma it was 0.0268 µM; in the assay on UO-31 renal it was 0.32 µM.

On to `O=C(O)CCNCC(=O)O`, for which the TGI in the assay with SK-OV-3 ovarian, in the assay on OVCAR-8 ovarian, with DU-145 prostate, in the assay on EKVX NSCLC, with NCI-H23 lung and in the assay with NCI-H226 lung was > 100 µM in each case. For the same compound, the TGI in the assay on HL-60(TB) leukemia, with RXF 393 renal, in the assay with UACC-62 melanoma and with UO-31 renal was > 100 µM throughout.

Turning to `Cc1c(-c2cnccn2)ssc1=S`, the TGI with SK-OV-3 ovarian was 93 µM; in the assay on OVCAR-8 ovarian, > 100 µM; in the assay on DU-145 prostate, > 100 µM; in the assay on EKVX NSCLC it was 90.9 µM; with NCI-H23 lung, > 100 µM; in the assay on NCI-H226 lung it was > 100 µM. For the same compound, the TGI with HL-60(TB) leukemia was > 77.4 µM; with RXF 393 renal it was 80.9 µM; in the assay on UACC-62 melanoma it was > 100 µM; in the assay on UO-31 renal it was > 89.7 µM.
